Results on one compound are retold here after US20220289903A1, “POLYMER AND COMPOSITION FROM RENEWABLE SOURCE” (ÅBO AKADEMI UNIVERSITY, priority 2019, published 2022).

The structures appear in SMILES notation.

Data set [1] relates to Murine breast cancer (4T1) cells. Description: In vivo study in tumor-bearing mice. To be noted: equivalent doxorubicin dose 7.5 mg/kg i.v. on alternate day, 4T1 tumor Balb/c mice. The protocol:
All animal experiments were done with the approval of Institutional Animal Ethical Committee (IAEC), National Institute of Immunology, New Delhi. Murine breast cancer (4T1) cells ([…]) in 200 μL of FBS were injected subcutaneously into the right flanks of 5-week-old female Balb/c mice. Mice were randomized into four groups (6 mice in each group) after they developed a tumor of ˜75 mm^3. […] Tumor measurements were made every alternate day using a digital caliper, and tumor volume was calculated using the formula L×B2/2 where L and B are the length and breadth of the tumor. Each mouse was weighed before dosing and weight loss with respect to dosing. The survival study was continued until the last mouse was found live in all the groups. […] FIG. 9B represents an example of the weight change (%) of Balb/c mice vs injection day when treated as above.

Data set [2] has as its system MDAMB-231 cells. Description: WST-1 cell viability assay, cancer cells. To be noted: 25-150 μg/mL DOX, 24 hours and 72 hours.

In the case of `COc1cccc2c1C(=O)c1c(O)c3c(c(O)c1C2=O)C[C@@](O)(C(=O)CO)C[C@@H]3O[C@H]1C[C@H](N)[C@H](O)[C@H](C)O1.Cl` [DOX, doxorubicin HCl], the “number of doses after which all animals of the group died” value in data set [1] came out at 4 doses. Further, in data set [2], the “percentage proliferation (cytotoxicity)” value is recorded as “equally cytotoxic regardless the cell line used”.
